Measurements from PMC11881906, “Development of xanthone derivatives as effective broad-spectrum antimicrobials: Disrupting cell wall and inhibiting DNA synthesis” (Science Advances, 2025).
≈ marks a conversion by molar mass, not a printed value.

How the values were obtained:
Gram-negative bacteria = experiment: MIC, Gram-negative strains; assay type: cell-based; conditions: read-out: MICs against Gram-negative bacteria
Method: (§1) MIC was determined using the broth microdilution method in accordance with Clinical and Laboratory Standards Institute guidelines. All compounds were dissolved in dimethyl sulfoxide (DMSO; final DMSO concentration of less than 0.5%) and sterile double-distilled water and then diluted with Mueller-Hinton broth (MHB). Each compound’s stock solution was serially twofold diluted, resulting in concentrations ranging from 0.39 to 100 μg/ml, and thereafter added to sterile 96-well plates. All bacterial cell suspensions were adjusted in MHB to attain a starting inoculum of 1 × 10^6 cells/ml. A total of 100 μl volume of the bacterial suspension was then added to each well. Following a 24-hour incubation at 37°C, the optical density at 600 nm (OD600) was confirmed by measuring absorbance at 600 nm with a BioTek microplate reader. […] All measurements were repeated three times with duplicates each time.

E. coli ATCC 25922 = experiment: DiSC3(5) membrane depolarization assay; assay type: cell-based, Escherichia coli; conditions: 1× to 8× MIC
Method: The DiSC3(5) assay was carried out to investigate the cytoplasmic membrane depolarization. Mid-log phase bacteria culture was centrifuged and resuspended in sterile Hepes buffer [5 mM (pH 7.4)] to adjust the concentration of bacterial cells to obtain OD600 of 0.1. The bacterial suspension was then incubated with 2 μM DiSC3(5) for 1 hour without being exposed to the light. The change in fluorescence intensity was monitored by a BioTek multidetector microplate reader with an excitation wavelength of 622 nm and an emission wavelength of 670 nm. […] All measurements were repeated three times with duplicates each time.

LPS = experiment: Fluorescence-based binding assay; conditions: compound 1× MIC; LPS 0 to 2.5 μg/ml
Method: Changes in the fluorescence emission spectrum or intensity were assessed for compound XT17 with and without the presence of targeted proteins. The fluorescent properties of compound XT17 (excitation wavelength of 350 nm and emission wavelength of 440 nm) were measured using a fluorescent plate reader upon binding to the targets. […] The changes in the emission from a constant concentration of fluorescent compound were monitored after adding increasing concentrations of LTA or LPS. All measurements were repeated three times with duplicates each time.

MRSA NCTC 10442 = experiment: MIC, broth microdilution; assay type: cell-based; conditions: Staphylococcus aureus; 24-hour incubation, MHB; read-out: MIC90 MRSA NCTC 10442
Method: as §1

K. pneumonia ATCC 14581 = experiment: MIC, broth microdilution; assay type: cell-based; conditions: Klebsiella pneumoniae, ATCC14581; 24-hour incubation, MHB
Method: as §1

P. aeruginosa ATCC 9027 = experiment: MIC, broth microdilution; assay type: cell-based; conditions: Pseudomonas aeruginosa, ATCC9027; 24-hour incubation, MHB
Method: as §1

A. baumannii ATCC 17978 = experiment: MIC, broth microdilution; assay type: cell-based; conditions: Acinetobacter baumannii, ATCC17978; 24-hour incubation, MHB
Method: as §1

S. aureus ATCC 29213 = experiment: MIC, broth microdilution; assay type: cell-based; conditions: Staphylococcus aureus, ATCC29213, 24 h, 24-hour incubation, MHB; read-out: MIC90 S. aureus ATCC 29213
Method: as §1

MRSA N315 = experiment: MIC, broth microdilution; assay type: cell-based; conditions: Staphylococcus aureus, 24-hour incubation, MHB, read-out: MIC90 MRSA N315
Method: as §1

A. baumannii R2889 = experiment: MIC, broth microdilution; assay type: cell-based; conditions: Acinetobacter baumannii, 24-hour incubation, MHB
Method: as §1

K. pneumonia ATCC 10031 = experiment: MIC, broth microdilution; assay type: cell-based; conditions: Klebsiella pneumoniae, ATCC10031; 24-hour incubation, MHB
Method: as §1

LTA = experiment: Fluorescence-based binding assay; conditions: compound 1× MIC; LTA 0 to 2.5 μg/ml
Method: Changes in the fluorescence emission spectrum or intensity were assessed for compound XT17 with and without the presence of targeted proteins. The fluorescent properties of compound XT17 (excitation wavelength of 350 nm and emission wavelength of 440 nm) were measured using a fluorescent plate reader upon binding to the targets. LTA-targeted protein concentrations ranged from 0.2 to 6.25 μg/ml, while LPS concentrations ranged from 0.78 to 25 μg/ml. The changes in the emission from a constant concentration of fluorescent compound were monitored after adding increasing concentrations of LTA or LPS. All measurements were repeated three times with duplicates each time.

rabbit erythrocytes = experiment: Hemolysis assay; assay type: cell-based; conditions: concentration causing 50% hemolysis of red blood cells; 1 hour, 37°C
Method: The hemolytic activity of antimicrobial agents was investigated as previously described ([70]). Briefly, the rabbit erythrocytes were centrifuged at 2500 rpm for 3 min before being washed twice with sterile phosphate-buffered saline (PBS) (pH 7.4). Subsequently, the erythrocytes were diluted with PBS to a final concentration of 8% (v/v). The DMSO-dissolved compounds were twofold serially diluted in PBS to achieve a final concentration with DMSO less than 0.5%. […] Sterile PBS and 0.2% Triton X-100 were used as negative and positive controls, respectively. After 1 hour of incubation at 37°C, the tested samples were centrifuged at 2500 rpm for 5 min, and aliquots of the supernatant were added to 96-well microplates. The hemoglobin release was determined by measuring the absorbance at 576 nm using a BioTek multimode reader. The percentage of hemolytic activity was calculated using the following formula: Hemolysis rate (%) = [OD576 (compound) − OD576 (PBS)]/[OD576 (Triton X-100) − OD576 (PBS)] × 100. All measurements were repeated three times with duplicates each time.

E. coli DNA = experiment: Electrophoretic mobility shift assay; assay type: binding, Escherichia coli; conditions: 8× MIC
Method: Isolation of DNA from pure culture of E. coli ATCC 25922 was carried out by the TIANamp bacterial DNA kit (TIANGEN, China) according to the manufacturer’s instructions. […] A loading buffer containing 10 mM TE (pH 7.5), 0.03% bromophenol blue, 0.03% xylene cyanol FF, 60% glycerol, and 60 mM EDTA was added in the sample following incubation for 30 min at 37°C. The electrophoresis was then performed at 100 V for 2 hours in 1× tris-acetate-EDTA buffer solution [0.04 M tris-acetate (pH 8.0) and 0.001 M EDTA] using a 1% (w/v) agarose gel. The bands were visualized using the ChemiDoc imaging system with ultraviolet light. All of the experiments were repeated at least twice with duplicates each time.

Q: What does the source list for `CC(C)=CCOc1cc(OCCCNC(=N)N)cc2oc3cc(OCCCNC(=N)N)ccc3c(=O)c12` [XT17]?
A: MIC (Gram-negative bacteria): 3.12 µg/mL (≈ 6.12 µM); DiSC3(5) fluorescence intensity (membrane depolarization) (E. coli ATCC 25922): no changes in fluorescence intensity; fluorescence emission of compound upon binding to LPS (LPS): decreased in a concentration-dependent manner; MIC90 (MRSA NCTC 10442): 0.39 µg/mL (≈ 0.764 µM); MIC90 (K. pneumonia ATCC 14581): 12.5 µg/mL (≈ 24.5 µM); MIC90 (P. aeruginosa ATCC 9027): 3.12 µg/mL (≈ 6.12 µM); MIC90 (A. baumannii ATCC 17978): 25 µg/mL (≈ 49 µM); MIC90 (S. aureus ATCC 29213): 0.39 µg/mL (≈ 0.764 µM); MIC90 (MRSA N315): 0.39 µg/mL (≈ 0.764 µM); MIC90 (A. baumannii R2889): 50 µg/mL (≈ 97.9 µM); MIC90 (K. pneumonia ATCC 10031): 6.25 µg/mL (≈ 12.2 µM); fluorescence emission of compound upon binding to LTA (LTA): decreased in a concentration-dependent manner; HC50 (rabbit erythrocytes): >200 µg/mL; interaction with E. coli DNA (gel mobility shift) (E. coli DNA): able to directly interact with the E. coli DNA
